Test [1] addresses T1, Mitogen-activated protein kinase 8 (Homo sapiens, UniProt P45983). In words: Inhibition of human recombinant histidine-tagged full-length JNK1 expressed in insect cells activated by GST-tagged MAP2K7 using ATF2 as substrate after 1 hr by luminescence plate reader analysis.
Test [2] addresses T1, Mitogen-activated protein kinase 8. In words: Inhibition of JNK1 in human Jurkat cell lysates using desthiobiotin-tagged ATP probe AX9989 followed by trypsinization by LC/MS analysis.
For test [3], the target named is Mitogen-activated protein kinase 9 (Homo sapiens, UniProt P45984). In words: Inhibition of JNK2 in human Jurkat cell lysates using desthiobiotin-tagged ATP probe AX9989 followed by trypsinization by LC/MS analysis.
Mitogen-activated protein kinase 9, sequence (P45984 whole entry): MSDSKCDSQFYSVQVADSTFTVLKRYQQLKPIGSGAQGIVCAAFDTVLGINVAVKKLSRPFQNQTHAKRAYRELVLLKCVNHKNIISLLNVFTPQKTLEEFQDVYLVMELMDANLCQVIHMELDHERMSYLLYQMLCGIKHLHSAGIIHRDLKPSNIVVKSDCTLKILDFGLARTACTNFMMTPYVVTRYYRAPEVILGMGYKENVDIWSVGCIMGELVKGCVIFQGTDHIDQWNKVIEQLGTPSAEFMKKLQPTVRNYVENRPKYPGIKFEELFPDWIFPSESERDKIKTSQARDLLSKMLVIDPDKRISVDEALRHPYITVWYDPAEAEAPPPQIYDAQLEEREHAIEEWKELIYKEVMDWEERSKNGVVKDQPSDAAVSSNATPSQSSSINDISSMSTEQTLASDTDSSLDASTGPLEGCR

T1 sequence (P45983 whole entry): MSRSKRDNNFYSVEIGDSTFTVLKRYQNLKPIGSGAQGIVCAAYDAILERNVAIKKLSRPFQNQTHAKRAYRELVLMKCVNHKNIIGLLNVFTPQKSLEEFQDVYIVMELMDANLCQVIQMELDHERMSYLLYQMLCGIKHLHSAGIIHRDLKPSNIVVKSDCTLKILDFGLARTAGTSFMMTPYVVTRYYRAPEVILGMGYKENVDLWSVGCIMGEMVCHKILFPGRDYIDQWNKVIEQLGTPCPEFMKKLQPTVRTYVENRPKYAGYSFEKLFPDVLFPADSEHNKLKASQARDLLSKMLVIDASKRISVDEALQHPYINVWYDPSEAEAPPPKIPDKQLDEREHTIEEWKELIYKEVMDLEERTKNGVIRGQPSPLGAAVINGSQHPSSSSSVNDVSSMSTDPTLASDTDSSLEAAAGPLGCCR

Broadly, the IC50 is the point on the concentration scale where inhibition reaches its midpoint. Take `O=C(NC1(c2ccccc2)CCCCCC1)c1ccc2nc(N[C@H]3CC[C@H](O)CC3)c3nccn3c2c1`: the IC50 in test [1] is 430 nM. Consider `CCC(CC)(NC(=O)c1ccc2nc(N[C@H]3CC[C@H](O)CC3)c3nccn3c2c1)c1ccccc1`, for which the IC50 in test [2] is 59 nM; in test [1], 160 nM; in test [3], more than 190 nM.

`O=C(NC(c1ccccc1)c1ccccc1)c1ccc2nc(N[C@H]3CC[C@H](O)CC3)c3nccn3c2c1`: the IC50 in test [1] was determined as 360 nM. Take `O=C(O)c1ccc2c(c1)nc(N[C@H]1CC[C@H](O)CC1)c1nccn12`: the IC50 in test [2] amounted to 82 nM; in test [1] it was 1500 nM. Take `O=C(NCc1ccccc1)c1ccc2nc(N[C@H]3CC[C@H](O)CC3)c3nccn3c2c1`: the concentration for half-maximal inhibition (IC50) in test [1] stood at 680 nM. As for `O=C(N[C@H](CCO)c1ccccc1)c1ccc2nc(N[C@H]3CC[C@H](O)CC3)c3nccn3c2c1`, the IC50 in test [1] came out at 620 nM. Same read-out and setting: under `O=C(N[C@@H](CO)c1ccccc1)c1ccc2nc(N[C@H]3CC[C@H](O)CC3)c3nccn3c2c1` stands 4900 nM. Take `COC[C@@H](NC(=O)c1ccc2nc(N[C@H]3CC[C@H](O)CC3)c3nccn3c2c1)c1ccccc1`: in test [1], the IC50 is 690 nM. Turning to `CS(=O)(=O)N[C@H]1CC[C@H](Nc2nc3ccccc3n3ccnc23)CC1`, the IC50 in test [1] was 2400 nM. For `CC[C@H](NC(=O)c1ccc2nc(N[C@H]3CC[C@H](O)CC3)c3nccn3c2c1)c1ccccc1`, in test [1], the IC50 worked out at 1700 nM. `FC1(F)CCC(Nc2nc3ccccc3n3ccnc23)CC1`: the IC50 in test [1] turned out to be 8000 nM.

As to `O[C@H]1CC[C@H](NC2=Nc3ccccc3N3CCN=C23)CC1`, the IC50 in test [1] was found to be 73000 nM. For the molecule `O[C@H]1CC[C@H](Nc2nc3ccccc3n3cccc23)CC1`, the IC50 in test [1] is more than 100000 nM. On to `Cc1ccc(C2(NC(=O)c3ccc4nc(N[C@H]5CC[C@H](O)CC5)c5nccn5c4c3)CC2)cc1`, for which the IC50 in test [1] is 250 nM. Still for that read-out and setting: under `O=C(NC1(c2ccccc2)CCCCC1)c1ccc2nc(N[C@H]3CC[C@H](O)CC3)c3nccn3c2c1` stands 1220 nM; under `C[C@@H](NC(=O)c1ccc2c(c1)nc(N[C@H]1CC[C@H](O)CC1)c1nccn12)c1ccccc1`, 1500 nM. With `O=C(NCc1ccccc1)c1ccc2c(c1)nc(N[C@H]1CC[C@H](O)CC1)c1nccn12`, the IC50 in test [1] came to 490 nM.

Take `O=C(NC1(c2ccccc2)CCCC1)c1ccc2nc(N[C@H]3CC[C@H](O)CC3)c3nccn3c2c1`: the IC50 in test [1] worked out at 180 nM.

For `CC(C)[C@@H](NC(=O)c1ccc2nc(N[C@H]3CC[C@H](O)CC3)c3nccn3c2c1)c1ccccc1`, the IC50 in test [1] is 350 nM. On the same count and under the same terms, as for `NC(=O)c1ccc2c(c1)nc(N[C@H]1CC[C@H](O)CC1)c1nccn12`, the figure is 4170 nM. Take `O=C(NC1(c2ccc(Cl)cc2)CC1)c1ccc2nc(N[C@H]3CC[C@H](O)CC3)c3nccn3c2c1`: the IC50 is 140 nM in test [2], 190 nM in test [1] and more than 190 nM in test [3]. As for `N[C@H]1CC[C@H](Nc2nc3ccccc3n3ccnc23)CC1`, the IC50 in test [1] was 1700 nM.
